US20220257620A1, “USE OF CERTAIN PHOSPHATIDYLCHOLINES CONTAINING LONG CHAIN POLYUNSATURATED FATTY ACIDS AS NEUROPROTECTIVE AGENTS” (KANNALIFE SCIENCES, INC., priority 2019, published 2022)

Tests used:
[1] = test system: dissociated hippocampal cultures (primary neurons); assay: Neuronal viability assay (CFDA), neuroprotection from 30 mM ethanol; type: cell-based, rat; settings: Table 3, 5 hour test period, co-treatment with 30 mM ethanol; for EC50: read-out: CFDA (EC50 + SE)
Text: Pre-coated poly-D-lysine coated plates will be used because of the adherence and survival of hippocampal neurons and glia on this matrix support.
Carboxyfluorescein (CFDA) was used a vital stain for all neuroprotection studies. With the use of the CytoFluor fluorimeter, the CFDA assay was employed to assess the viability of neurons. […] Neuronal specificity is obtained relative to astrocytes because the cleaved dye is extruded extracellularlly by glia with time, while dye in neurons remains intracellular.

[2] = test system: dissociated hippocampal cultures; assay: Cell death assay (propidium iodide), protection from 30 mM ethanol; type: cell-based, rat; settings: Table 3, 5 hour test period, co-treatment with 30 mM ethanol; for IC50: read-out: Propidium Iodide (IC50 + SE)

Row | Molecule | CFDA (EC50 + SE) [1] | Propidium Iodide (IC50 + SE) [2] | EC50 [1] [pM] | IC50 [2] [pM]
1 | PC 16:0-18:2 [reference compound] | Inactive | Inactive | – | –
2 | CC/C=C\C/C=C\C/C=C\CCCCCCCC(=O)OC[C@H](COP(=O)([O-])OCC[N+](C)(C)C)OC(=O)CCCCCCC/C=C\C/C=C\C/C=C\CC [PC 18:3-18:3, 1,2-dilinolenoyl-phosphatidylcholine] | – | – | 202 ± 22 | 204 ± 88
3 | CCCCC/C=C\C/C=C\C/C=C\C/C=C\CCCC(=O)OC[C@H](COP(=O)([O-])OCC[N+](C)(C)C)OC(=O)CCC/C=C\C/C=C\C/C=C\C/C=C\CCCCC [PC 20:4-20:4, 1,2-diarachidonyl-phosphatidylcholine] | – | – | 1 ± 0.08 | 1.2 ± 0.12
4 | CC/C=C\C/C=C\C/C=C\C/C=C\C/C=C\C/C=C\CCC(=O)OC[C@H](COP(=O)([O-])OCC[N+](C)(C)C)OC(=O)CC/C=C\C/C=C\C/C=C\C/C=C\C/C=C\C/C=C\CC [PC 22:6-22:6] | – | – | 283 ± 46 | 210 ± 53
5 | CCCCC/C=C\C/C=C\CCCCCCCC(=O)OCC(COP(=O)([O-])OCC[N+](C)(C)C)OC(=O)CCCCCCC/C=C\C/C=C\CCCCC (stereo not shown) [PC 18:2-18:2, 1,2-dilinoleoyl-phosphatidylcholine] | – | – | 67 ± 22 | 44 ± 15
